In brackets after ≈: the same amount, converted by molar mass.
How the values were obtained:
[1] = tested on: 60 human tumor cell lines; experiment: NCI disease-oriented in vitro screen; type: cell-based; conditions: 48 hr exposure, 0.01–100 μM, read-out: average IC50 over 60 human tumor cell lines
Text: A sulforhodaminine B protein assay was used to estimate the cytotoxicity.

[2] = tested on: casein kinase 1; experiment: In vitro phosphorylation of presenilin-2-MBP by casein kinase 1; type: biochemical; conditions: presenilin-2-MBP substrate, autoradiography
Protocol: The large hydrophilic loop of presenilin-2 between transmembrane domains 6 and 7 was expressed in E. coli as a presseilin-2 loop—maltose-binding protein (MBP) fusion protein [25]. Following affinity chromatography purification presenilin-2-MBP was used as a substrate for CK1. After 30 min incubation in the presence of various HD concentrations, the kinase reaction was stopped by addition of Laemmli sample buffer. MBP-presenilin-2 was resolved by SDS-PAGE and its phosphorylation level visualised by autoradiography.

[3] = target: protein kinase C α (Homo sapiens, UniProt P17252); experiment: protein kinase C α assay; type: biochemical; conditions: 15 μM ATP
Protocol: (§1) Kinases activities were assayed in Buffer A or C (unless otherwise stated), at 30° C., at a final ATP concentration of 15 μM. Blank values were subtracted and activities calculated as pmoles of phosphate incorporated for a 10 min. incubation (usually expressed in % of the maximal activity, i.e. without inhibitors). Controls were performed with appropriate dilutions of Me2SO. In some cases phosphorylation of the substrate was assessed by autoradiography after SDS-PAGE. IC50 values were estimated from the dose-response curves. • CDK1/cyclin B was extracted in homogenisation buffer from M phase starfish (Marthasterias glacialis) oocytes and purified by affinity chromatography on p9^CKShs1-Sepharose beads, from which it was eluted by free p9^CKShs1 as described. The kinase activity was assayed in buffer C, with 1 mg histone H1/ml, in the presence of 15 μM [γ-^32P] ATP (3,000 Ci/mmol; 1 mCi/ml) in a final volume of 30 μl. After 10 min. incubation at 30° C., 25 μl aliquots of supernatant were spotted onto 2.5×3 cm pieces of Whatman P81 phosphocellulose paper, and, 20 sec. later, the filters were washed five times (for at least 5 min. each time) in a solution of 10 ml phosphoric acid/liter of water. The wet filters were counted in the presence of 1 ml ACS (Amersham) scintillation fluid. • GSK-3β was either purified from rabbit muscle or expressed in and purified from insect Sf9 cells. […]

[4] = target: cdk6/cyclin D2 (Homo sapiens, UniProt Q00534); experiment: cdk6/cyclin D2 kinase assay; type: biochemical; conditions: 15 μM ATP
Protocol: as §1

[5] = target: Eg2 kinase (Xenopus laevis, UniProt Q91820); experiment: Eg2 kinase assay; type: biochemical; conditions: 15 μM ATP
Protocol: Enzyme activities were assayed as described in the Experimental Procedures section, in the presence of increasing HD concentrations. IC50's were calculated from the dose-response curves.−, no effect at the highest dose tested (in parentheses).

[6] = tested on: HT29-18-C1 cells; experiment: HT29-18-C1 growth inhibition (cell counts); type: cell-based, human
Protocol: Cell culture and treatments. HT29-18-C1, a subclone of the human colon adenocarcinoma cell line HT29, was cultured in Dulbecco's modified Eagle's medium (Gibco-BRL) supplemented with 10% FCS, 2 mM L-glutamine (Eurobio) and […] gentamycin (Gibco-BRL) at 37° C., 10% CO2. Cells were synchronized by serum deprivation for 48 h. They were then released from growth arrest by the addition of 5% fetal calf serum (FCS). HD, prepared in DMSO, was added immediately to the medium, for 24 h and at final concentrations ranging from 0 to 80 μM. In some experiments HD was added 22 h after serum addition for an additional 24 h. In other experiments HD was added to unsynchronised cells. Cells were then washed and cultured in 5% FCS medium and counted or analysed by FACS at different times.
Cell counts and flow cytometric cell cycle analysis. Cell were counted with a hemocytometer. Cell cycle distribution was analysed by flow cytometry. The adherent cells (1.10^6) were trypsinised and fixed in cold 70% ethanol for 4 h. […] The stained cells were analysed on a FACScan cytofluorimeter using the cellFit Software program (Becton Dickinson Immunocytometry Systems).
HT29-18-C1 cells were synchronised in G1 by serum deprivation. […] Cell number was determined every 12 h for a 72 h period using a hemocytometer. […] Serum-treated cells (time 0) were exposed to various HD concentrations and counted after 24 h. […]

[7] = tested on: lung, H460; experiment: Human cancer cell line H460 proliferation; type: cell-based; conditions: NCI-H460
[8] = tested on: P388 cell line; experiment: Inhibition of cell proliferation, P388; type: cell-based; conditions: Mus musculus, P388; read-out: IC50 on P388 cell line in μM (parentheses)
[9] = target: CDK5/p35 (Rattus norvegicus, UniProt Q03114); experiment: In vitro Pak1 phosphorylation by immunoprecipitated CDK5/p35; type: biochemical; conditions: CDK5/p35 immunoprecipitated from P02 rat cortices; read-out: IC50 CDK5/p35 towards GST-Pak1K299
Sequence of CDK5/p35 (Q03114 whole entry): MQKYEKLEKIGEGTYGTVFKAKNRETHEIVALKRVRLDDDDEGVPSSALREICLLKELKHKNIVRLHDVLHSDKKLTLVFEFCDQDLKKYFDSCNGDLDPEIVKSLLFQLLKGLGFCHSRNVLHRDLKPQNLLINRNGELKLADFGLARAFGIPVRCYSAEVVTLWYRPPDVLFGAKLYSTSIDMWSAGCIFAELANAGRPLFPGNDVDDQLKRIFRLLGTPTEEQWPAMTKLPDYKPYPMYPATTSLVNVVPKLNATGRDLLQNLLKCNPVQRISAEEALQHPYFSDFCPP
Sequence of CDK5/p35 (P61810 2-307 partner limits assumed): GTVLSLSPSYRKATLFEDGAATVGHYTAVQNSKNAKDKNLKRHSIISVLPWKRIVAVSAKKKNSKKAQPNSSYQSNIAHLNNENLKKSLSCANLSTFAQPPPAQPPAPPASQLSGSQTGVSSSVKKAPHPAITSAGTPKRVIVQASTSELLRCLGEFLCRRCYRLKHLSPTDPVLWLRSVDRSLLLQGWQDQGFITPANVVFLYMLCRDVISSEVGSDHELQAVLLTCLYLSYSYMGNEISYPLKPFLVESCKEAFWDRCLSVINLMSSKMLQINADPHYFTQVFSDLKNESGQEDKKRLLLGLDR
Protocol: CDK5/p35 was immunoprecipitaed from P02 rat cortices using the C-terminal Santa Cruz antibody (400 μg total protein per kinase assay). The immunoprecipitate was split into equal aliquots and the kinase assays performed using GST-Pak1 K299 as a substrate. […] Phosphorylation was monitored by autoradiography.

Sequence of cdk6/cyclin D2 (Q00534 whole entry, species assumed): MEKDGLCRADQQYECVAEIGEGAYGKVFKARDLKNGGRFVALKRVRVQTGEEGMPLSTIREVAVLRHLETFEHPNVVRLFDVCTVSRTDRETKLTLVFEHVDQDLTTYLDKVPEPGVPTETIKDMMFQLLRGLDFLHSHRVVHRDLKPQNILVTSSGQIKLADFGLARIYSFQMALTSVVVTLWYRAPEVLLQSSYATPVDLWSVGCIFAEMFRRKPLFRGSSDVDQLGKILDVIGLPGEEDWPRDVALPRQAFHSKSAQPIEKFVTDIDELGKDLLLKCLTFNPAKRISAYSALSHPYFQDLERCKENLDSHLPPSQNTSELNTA
Sequence of cdk6/cyclin D2 (P30279 whole entry partner, species assumed): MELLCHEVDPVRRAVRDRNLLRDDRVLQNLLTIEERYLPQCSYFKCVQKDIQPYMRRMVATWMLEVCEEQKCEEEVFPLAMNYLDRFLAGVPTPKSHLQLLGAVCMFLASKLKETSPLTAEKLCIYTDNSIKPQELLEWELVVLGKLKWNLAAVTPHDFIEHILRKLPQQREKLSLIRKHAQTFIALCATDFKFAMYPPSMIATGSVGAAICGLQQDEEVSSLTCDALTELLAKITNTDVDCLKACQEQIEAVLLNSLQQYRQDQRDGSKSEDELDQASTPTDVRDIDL
Sequence of Eg2 kinase (Q91820 whole entry): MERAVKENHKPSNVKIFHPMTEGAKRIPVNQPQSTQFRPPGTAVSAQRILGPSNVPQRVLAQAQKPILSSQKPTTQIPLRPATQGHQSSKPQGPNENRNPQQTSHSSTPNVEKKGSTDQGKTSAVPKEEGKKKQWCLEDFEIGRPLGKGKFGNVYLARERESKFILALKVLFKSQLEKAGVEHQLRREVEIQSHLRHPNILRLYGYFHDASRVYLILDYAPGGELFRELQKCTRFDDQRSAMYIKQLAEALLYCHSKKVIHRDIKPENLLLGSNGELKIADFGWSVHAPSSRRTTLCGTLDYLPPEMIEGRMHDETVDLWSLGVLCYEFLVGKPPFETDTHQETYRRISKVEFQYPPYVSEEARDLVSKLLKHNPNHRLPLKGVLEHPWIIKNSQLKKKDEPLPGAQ

Q: `NC1=NC(=O)C(=C2CCNC(=O)c3[nH]c(Br)cc32)N1` [hymenialdisine, 4-(2-amino-4-oxo-2-imidazolin-5-ylidene)-2-bromo-4,5,6,7-tetrahydropyrrolo (2,3-c) azepine-8-one] was tested. Which IC50 [1] did it give?
A: 15.1 µM

Q: And the “presenilin-2 phosphorylation by CK1” value [2]?
A: dose-dependent inhibition of presenilin-2 phosphorylation

Q: What about the IC50 [3] of the same compound?
A: 0.7 µM

Q: What about the IC50 [4] of the same compound?
A: 0.7 µM

Q: What about the IC50 [5] of the same compound?
A: 4 µM

Q: What about the “growth of HT29-18-C1 (cell number)” value ([6]; 10 μM for 24 h, followed over 72 h) of the same compound?
A: strong growth inhibition

Q: And the IC50 ([6]; Homo sapiens, serum-treated cells counted after 24 h)?
A: 5 µM

Q: What about the IC50 [7] of the same compound?
A: 42 µg/mL (≈ 130 µM)

Q: What about the IC50 [8] of the same compound?
A: 9.9 µM

Q: And the IC50 [9]?
A: 0.01 to 0.1 µM

Reference: patent US7098204B2 (C.N.R.S., priority 1999, dated 2006)
